From PMC8280112, “Substrate reduction therapy for Krabbe disease and metachromatic leukodystrophy using a novel ceramide galactosyltransferase inhibitor” (Scientific Reports, 2021)
Several values for one entry are separate records, joined by “and”; a condition that tells them apart may be missing. Identical values can stand only once.

Columns and labels:
[1] = biological target: T1, CGT in CHO cells stably expressing human UGT8 (Homo sapiens, UniProt Q16880); assay: CGT cellular assay (intact-cell assay); type: cell-based
T1 construct: expressed in transfected cells; host or cells: CHO cells stably expressing human UGT8
T1 sequence (Q16880 21-541): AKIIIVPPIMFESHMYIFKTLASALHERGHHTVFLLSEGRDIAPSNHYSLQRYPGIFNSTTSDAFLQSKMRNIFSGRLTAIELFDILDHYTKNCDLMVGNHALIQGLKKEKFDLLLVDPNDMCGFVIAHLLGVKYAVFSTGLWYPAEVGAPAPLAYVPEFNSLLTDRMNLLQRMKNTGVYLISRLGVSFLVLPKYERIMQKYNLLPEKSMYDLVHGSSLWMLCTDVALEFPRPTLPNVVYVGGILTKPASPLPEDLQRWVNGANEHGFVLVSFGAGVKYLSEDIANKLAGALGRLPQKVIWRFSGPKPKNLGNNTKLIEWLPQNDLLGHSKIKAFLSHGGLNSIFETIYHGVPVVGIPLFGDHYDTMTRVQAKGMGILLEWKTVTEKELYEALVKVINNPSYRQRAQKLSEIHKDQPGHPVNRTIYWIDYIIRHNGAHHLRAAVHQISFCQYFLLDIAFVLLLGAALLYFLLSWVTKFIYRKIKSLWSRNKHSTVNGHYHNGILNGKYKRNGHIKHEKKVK
Description: 3 × 10^4 CHO cells stably expressing human UGT8 were seeded in a 96-well TC plate in F12K + 10% FBS (Invitrogen, qualified, Australia, 10099141) and incubated at 37 °C, 5% CO2 overnight. Media was removed and compounds, diluted in F12K + 5% FBS (0.1% DMSO final) containing 1 µM eliglustat to prevent NBD-glucosylceramide formation, were added to the cells and incubated 2 h at 37 °C. NDB-(2R-OH)-C6-ceramide (BioMarin) in F12K + 5% FBS + 11% BSA was added to a final substrate concentration of 10 µM in 1% BSA and incubated 1 h at 37 °C before extracting in methanol/0.5% acetic acid containing N-dodecanoyl-NBD-galactosylceramide IS (1 µM). After 2 h shaking, the solution was centrifuged at 4000 rpm for 30 min, and 80 µL of supernatant was transferred to 40 µL H2O, mixed and centrifuged at 4000 rpm for 10 min. NDB-(2R-OH)-C6-galactosylceramide product was quantified by a Shimadzu ultra-fast liquid chromatography system (Shimadzu) coupled to an API 4000 mass spectrometer in ESI negative mode (Applied Biosystems) using a Kinetex C18 column (50 × 2.1 mm, 2.6 µm, 100 Å) (Phenomenex) with 0.1% formic acid and acetonitrile supplemented with 0.1% formic acid.

[2] = system: GalCer and psychosine levels; assay: Twitcher mouse brain psychosine and galactosylceramide analysis; type: in vivo; details: Twitcher mice treated PND3-PND28
Description: Mice heterozygous for the Twitcher mutation on the congenic C57BL/6 background were originally purchased from The Jackson Laboratories (stock #000845). Homozygous GALC −/− animals were generated from heterozygous mating. Genotypes were determined on PND1 by PCR as previously described[43],[44]. Animals that died prior to weaning on PND28 were excluded from the study unless otherwise noted. Animals were euthanized when they became moribund as defined by any of the following: losing 25% of their maximal body weight, ataxia severe enough to impair ability to eat or drink, or lack of response to tactile stimulus. Animals used for tissue collection were euthanized by anesthetic overdose and perfused transcardially with PBS for three min. Animals for lifespan analysis were euthanized using CO2 compressed gas delivered at 10–30% chamber volume displacement per min. […] Tissues were harvested and flash frozen in liquid nitrogen.
Galactosylsphingosine (psychosine), and galactosylceramide were measured by tandem mass spectrometry as previously described. Briefly, tissue samples were homogenized in 0.04 M citric acid. Internal controls in 200 µL methanol were added to 50 µL of each sample. […] Galactosylsphingosine and galactosylceramide were detected using MRM on an AB SCIEX 4000QTRAP tandem mass spectrometer using ESI in the positive ion mode. […]

[3] = biological target: T2, Glucosylceramide synthase (GCS) (Canis lupus familiaris, UniProt A0A8I3MXG6); assay: Glucosylceramide synthase assay; type: biochemical; details: MDCK cell lysate
T2 construct: endogenous in cells; host or cells: MDCK cell lysate
T2 sequence (A0A8I3MXG6 1-394): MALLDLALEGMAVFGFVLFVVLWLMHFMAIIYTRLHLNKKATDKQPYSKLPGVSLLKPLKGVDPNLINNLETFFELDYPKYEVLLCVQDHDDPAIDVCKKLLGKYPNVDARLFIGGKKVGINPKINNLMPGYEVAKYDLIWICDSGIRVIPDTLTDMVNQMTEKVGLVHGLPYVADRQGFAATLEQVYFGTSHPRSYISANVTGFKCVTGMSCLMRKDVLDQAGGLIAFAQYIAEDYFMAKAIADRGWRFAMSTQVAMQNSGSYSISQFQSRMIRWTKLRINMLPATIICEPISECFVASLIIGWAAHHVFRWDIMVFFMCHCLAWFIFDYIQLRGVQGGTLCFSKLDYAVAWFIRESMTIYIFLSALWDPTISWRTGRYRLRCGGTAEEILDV
Description: Modified from Larsen et al.[46]. Briefly, 60 μg of MDCK cell lysate was incubated with […] in 100 mM Tris buffer (pH 7.5), 10 mM MgCl2, 1 mM dithiothreitol, 1 mM EGTA, 2 mM NAD, 100 μM UDP-glucose, 10 μM C6-NBD-Ceramide (Matreya), 35 μM DOPC, and 5 μM sulfatide (Sigma) at 37 °C for 1 h. The reaction was stopped with equal volume of acetonitrile and 50 μL was added to 100 μL of acetonitrile containing 100 ng/mL tolbutamide IS and centrifuged. Next, 70 μL of supernatant was mixed with 140 μL H2O before LC-MS analysis. NBD-Glucosylceramide quantification was performed on a Shimadzu ultra-fast liquid chromatography system (Shimadzu) coupled with an API 4000 triple quadrupole mass spectrometer in ESI positive mode (Applied Biosystems) and a Xbridge BEH130 CI 8, 100 mm × 4.6 mm i.d, 3.5 μm column (Waters). The mobile phase consisted of water and acetonitrile supplemented with 0.1% formic acid (v/v).

## C[C@H]1N(c2ccc(Br)cc2)C(=O)N(c2ccc(Br)cc2)C1(O)c1cccc(OC(F)(F)F)c1 (stereo partly shown) [S202]
[1]
  IC50: 2 nM and 3.6 nM and 3 nM
[2]
  non-hydroxy-GalCer in the brain: dose-dependent reduction
  psychosine levels in the brain: reduced to the same extent as the non-hydroxy-GalCer
[3]
  IC50: > 50000 nM
